Assay results taken from PMC11062899, “De novo development of small cyclic peptides that are orally bioavailable” (Nature Chemical Biology, 2023).
Values joined by “and” are separate entries in the source; they are usually repeats but may differ in a detail not shown here. Equal entries are not always repeated. Where two headings read alike, the source gives them in different places.

Tests used:
human α-thrombin = human α-thrombin (Homo sapiens, UniProt P00734); assay: Protease inhibition, Ki for human α-thrombin (fluorogenic substrate Z-Gly-Gly-Arg-AMC); format: biochemical; details: for Slope normalized to DMSO (proteolytic substrate cleavage over time): replicates R1-R3
Method in brief: (§1)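 Ki derived through Cheng–Prusoff from IC50s (four-parameter logistic fit) against activity of peptide-free controls. Product fluorescence was read every 3 min over 30 min at 25 °C, substrate Z-Gly-Gly-Arg-AMC at 50 μM. Enzyme was 2 nM human or 3 nM rat α-thrombin, pH 7.4 buffer.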

rat α-thrombin = target: T1, rat α-thrombin (Rattus norvegicus, UniProt P18292); assay: Protease inhibition, Ki for rat α-thrombin (fluorogenic substrate Z-Gly-Gly-Arg-AMC); format: biochemical; details: for Slope normalized to DMSO (proteolytic substrate cleavage over time): replicates R1-R3
T1 construct: rat α-thrombin (Molecular Innovations) were used at final concentrations of 2 nM and 3 nM; purchased Molecular Innovations
Method in brief: as §1

porcine pepsin = target: T2, porcine pepsin (Sus scrofa, UniProt P00791); assay: Peptide stability in simulated gastric fluid (SGF); format: in vitro ADME
T2 construct: 0.32 g of porcine pepsin (Sigma-Aldrich, P7125) was dissolved under gentle agitation; purchased Sigma-Aldrich P7125
T2 sequence (P00791 60-385): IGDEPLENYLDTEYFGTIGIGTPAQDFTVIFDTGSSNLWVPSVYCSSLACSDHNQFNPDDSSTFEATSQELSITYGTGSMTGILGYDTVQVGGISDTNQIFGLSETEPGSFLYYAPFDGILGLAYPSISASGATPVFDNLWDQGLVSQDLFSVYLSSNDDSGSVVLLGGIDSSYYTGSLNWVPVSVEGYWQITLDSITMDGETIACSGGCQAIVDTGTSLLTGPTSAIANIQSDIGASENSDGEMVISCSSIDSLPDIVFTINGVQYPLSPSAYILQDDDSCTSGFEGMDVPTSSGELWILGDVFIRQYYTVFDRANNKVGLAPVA
Method in brief: (§2)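 Peptide from a 1 mM DMSO stock was added to fluid pre-warmed at 37 °C. SGF was pH 1.2 NaCl with porcine pepsin (0.32 g per 100 ml), and SIF was pH 6.8 potassium phosphate with porcine pancreatin (1 g per 100 ml). Supernatant peptide was quantified by LC–MS, with residual expressed as T1/T0.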

[1] = Peptide stability in simulated intestinal fluid (SIF); format: in vitro ADME, porcine; details: simulated gi fluid; 8 h, 37 °C, pH 6.8; read-out: Proteolytic stability: SIF (8 h) % remaining
Method in brief: as §2

porcine pancreatin = assay: as above; format: in vitro ADME; details: after 8 h vs 0 h (TIC)
Method in brief: as §2

[2] = Passive artificial membrane permeability (PAMPA)

## O=C1C[C@H]2CCCN2C(=O)[C@H](Cc2ccccc2)NC(=O)[C@@H](NC(=O)c2ccc(Cl)s2)CSC/C=C/CSCCN1 [peptide 32]
Human α-thrombin; human alpha thrombin, peptide 1.02E-03 uM
  Slope normalized to DMSO (proteolytic substrate cleavage over time): 91.7 and 75.0 and 84.5
Human α-thrombin; human alpha thrombin, peptide 1.04E+00 uM
  Slope normalized to DMSO (proteolytic substrate cleavage over time): 9.7 and 14.2 and 12.5
Human α-thrombin; human alpha thrombin, peptide 1.27E-04 uM
  Slope normalized to DMSO (proteolytic substrate cleavage over time): 92.1 and 89.4 and 95.4
Human α-thrombin; human alpha thrombin, peptide 1.30E-01 uM
  Slope normalized to DMSO (proteolytic substrate cleavage over time): 16.4 and 22.7 and 18.5
Human α-thrombin; human alpha thrombin, peptide 1.59E-05 uM
  Slope normalized to DMSO (proteolytic substrate cleavage over time): 104.8 and 95.5 and 101.0
Human α-thrombin; human alpha thrombin, peptide 1.63E-02 uM
  Slope normalized to DMSO (proteolytic substrate cleavage over time): 54.1 and 48.1 and 57.3
Human α-thrombin; human alpha thrombin, peptide 1.67E+01 uM
  Slope normalized to DMSO (proteolytic substrate cleavage over time): 4.0 and 6.4 and 1.8
Human α-thrombin; human alpha thrombin, peptide 2.03E-03 uM
  Slope normalized to DMSO (proteolytic substrate cleavage over time): 79.8 and 80.8 and 68.0
Human α-thrombin; human alpha thrombin, peptide 2.08E+00 uM
  Slope normalized to DMSO (proteolytic substrate cleavage over time): 5.1 and 8.3 and -0.433
Human α-thrombin; human alpha thrombin, peptide 2.54E-04 uM
  Slope normalized to DMSO (proteolytic substrate cleavage over time): 93.1 and 85.9 and 92.0
Human α-thrombin; human alpha thrombin, peptide 2.60E-01 uM
  Slope normalized to DMSO (proteolytic substrate cleavage over time): 11.6 and 16.8 and 13.0
Human α-thrombin; human alpha thrombin, peptide 3.18E-05 uM
  Slope normalized to DMSO (proteolytic substrate cleavage over time): 103.7 and 94.2 and 96.3
Human α-thrombin; human alpha thrombin, peptide 3.26E-02 uM
  Slope normalized to DMSO (proteolytic substrate cleavage over time): 46.3 and 39.7 and 47.4
Human α-thrombin; human alpha thrombin, peptide 3.33E+01 uM
  Slope normalized to DMSO (proteolytic substrate cleavage over time): -4.9 and 8.0 and -5.2
Human α-thrombin; human alpha thrombin, peptide 4.07E-03 uM
  Slope normalized to DMSO (proteolytic substrate cleavage over time): 68.4 and 49.8 and 67.1
Human α-thrombin; human alpha thrombin, peptide 4.17E+00 uM
  Slope normalized to DMSO (proteolytic substrate cleavage over time): 7.1 and 16.4 and 0.5
Human α-thrombin; human alpha thrombin, peptide 5.09E-04 uM
  Slope normalized to DMSO (proteolytic substrate cleavage over time): 91.3 and 86.2 and 83.7
Human α-thrombin; human alpha thrombin, peptide 5.21E-01 uM
  Slope normalized to DMSO (proteolytic substrate cleavage over time): 9.0 and 17.4 and 10.1
Human α-thrombin; human alpha thrombin, peptide 6.36E-05 uM
  Slope normalized to DMSO (proteolytic substrate cleavage over time): 103.6 and 90.9 and 101.0
Human α-thrombin; human alpha thrombin, peptide 6.51E-02 uM
  Slope normalized to DMSO (proteolytic substrate cleavage over time): 26.8 and 23.7 and 23.8
Human α-thrombin; human alpha thrombin, peptide 6.67E+01 uM
  Slope normalized to DMSO (proteolytic substrate cleavage over time): 5.5 and 8.8 and 5.2
Human α-thrombin; human alpha thrombin, peptide 7.95E-06 uM
  Slope normalized to DMSO (proteolytic substrate cleavage over time): 105.4 and 96.7 and 100.1
Human α-thrombin; human alpha thrombin, peptide 8.14E-03 uM
  Slope normalized to DMSO (proteolytic substrate cleavage over time): 56.5 and 45.5 and 52.6
Human α-thrombin; human alpha thrombin, peptide 8.33E+00 uM
  Slope normalized to DMSO (proteolytic substrate cleavage over time): -1.1 and 9.3 and 3.5
Human α-thrombin; human alpha thrombin, single replicates R1-R3, read-out: IC50, human alpha thrombin inhibition
  IC50: 13.6 nM and 7.3 nM and 13.8 nM
Human α-thrombin; human alpha thrombin, single replicates R1-R3, read-out: Ki, human alpha thrombin inhibition
  Ki: 10.4 nM (2×) and 5.65 nM (2×) and 10.6 nM (2×)
Human α-thrombin; purified peptide, mean and s.d. of three measurements, read-out: Ki human α-thrombin
  Ki: 8.9 ± 2.3 nM
Rat α-thrombin; purified peptide, mean and s.d. of three measurements, read-out: Ki rat α-thrombin
  Ki: 1.1 ± 0.41 nM
Rat α-thrombin; rat alpha thrombin, peptide 1.02E-03 uM
  Slope normalized to DMSO (proteolytic substrate cleavage over time): 71.6 and 67.2 and 58.0
Rat α-thrombin; rat alpha thrombin, peptide 1.04E+00 uM
  Slope normalized to DMSO (proteolytic substrate cleavage over time): 6.5 and 8.7 and 6.4
Rat α-thrombin; rat alpha thrombin, peptide 1.27E-04 uM
  Slope normalized to DMSO (proteolytic substrate cleavage over time): 89.6 and 85.7 and 79.9
Rat α-thrombin; rat alpha thrombin, peptide 1.30E-01 uM
  Slope normalized to DMSO (proteolytic substrate cleavage over time): 12.8 and 13.3 and 8.9
Rat α-thrombin; rat alpha thrombin, peptide 1.59E-05 uM
  Slope normalized to DMSO (proteolytic substrate cleavage over time): 102.5 and 122.8 and 94.2
Rat α-thrombin; rat alpha thrombin, peptide 1.63E-02 uM
  Slope normalized to DMSO (proteolytic substrate cleavage over time): 35.3 and 31.4 and 27.2
Rat α-thrombin; rat alpha thrombin, peptide 1.67E+01 uM
  Slope normalized to DMSO (proteolytic substrate cleavage over time): 4.8 and 5.1 and 4.2
Rat α-thrombin; rat alpha thrombin, peptide 2.03E-03 uM
  Slope normalized to DMSO (proteolytic substrate cleavage over time): 56.5 and 52.5 and 45.1
Rat α-thrombin; rat alpha thrombin, peptide 2.08E+00 uM
  Slope normalized to DMSO (proteolytic substrate cleavage over time): 5.0 and 7.7 and 6.7
Rat α-thrombin; rat alpha thrombin, peptide 2.54E-04 uM
  Slope normalized to DMSO (proteolytic substrate cleavage over time): 83.1 and 80.0 and 103.6
Rat α-thrombin; rat alpha thrombin, peptide 2.60E-01 uM
  Slope normalized to DMSO (proteolytic substrate cleavage over time): 12.7 and 11.2 and 6.9
Rat α-thrombin; rat alpha thrombin, peptide 3.18E-05 uM
  Slope normalized to DMSO (proteolytic substrate cleavage over time): 95.8 and 95.0 and 90.9
Rat α-thrombin; rat alpha thrombin, peptide 3.26E-02 uM
  Slope normalized to DMSO (proteolytic substrate cleavage over time): 29.1 and 26.7 and 19.1
Rat α-thrombin; rat alpha thrombin, peptide 3.33E+01 uM
  Slope normalized to DMSO (proteolytic substrate cleavage over time): 5.0 and 6.0 and 4.0
Rat α-thrombin; rat alpha thrombin, peptide 4.07E-03 uM
  Slope normalized to DMSO (proteolytic substrate cleavage over time): 51.9 and 49.0 and 39.9
Rat α-thrombin; rat alpha thrombin, peptide 4.17E+00 uM
  Slope normalized to DMSO (proteolytic substrate cleavage over time): 5.5 and 6.1 and 4.2
Rat α-thrombin; rat alpha thrombin, peptide 5.09E-04 uM
  Slope normalized to DMSO (proteolytic substrate cleavage over time): 76.1 and 71.5 and 67.7
Rat α-thrombin; rat alpha thrombin, peptide 5.21E-01 uM
  Slope normalized to DMSO (proteolytic substrate cleavage over time): 9.5 and 9.3 and 6.7
Rat α-thrombin; rat alpha thrombin, peptide 6.36E-05 uM
  Slope normalized to DMSO (proteolytic substrate cleavage over time): 93.9 and 94.0 and 87.7
Rat α-thrombin; rat alpha thrombin, peptide 6.51E-02 uM
  Slope normalized to DMSO (proteolytic substrate cleavage over time): 18.8 and 16.8 and 12.8
Rat α-thrombin; rat alpha thrombin, peptide 6.67E+01 uM
  Slope normalized to DMSO (proteolytic substrate cleavage over time): 5.5 and 6.5 and 3.1
Rat α-thrombin; rat alpha thrombin, peptide 7.95E-06 uM
  Slope normalized to DMSO (proteolytic substrate cleavage over time): 102.1 and 101.6 and 99.0
Rat α-thrombin; rat alpha thrombin, peptide 8.14E-03 uM
  Slope normalized to DMSO (proteolytic substrate cleavage over time): 40.8 and 35.1 and 27.1
Rat α-thrombin; rat alpha thrombin, peptide 8.33E+00 uM
  Slope normalized to DMSO (proteolytic substrate cleavage over time): 4.4 and 7.1 and 3.1
Rat α-thrombin; rat alpha thrombin, single replicates R1-R3, read-out: IC50, rat alpha thrombin inhibition
  IC50: 2.94 nM and 1.12 nM and 1.9 nM
Rat α-thrombin; rat alpha thrombin, single replicates R1-R3, read-out: Ki, rat alpha thrombin inhibition
  Ki: 1.63 nM (2×) and 0.618 nM (2×) and 1.05 nM
Porcine pepsin; after 8 h vs 0 h (TIC), average of R1-R3
  SGF stability, Residual peptide Average: 106.85
Porcine pepsin; after 8 h vs 0 h (TIC), single replicates R1-R3
  SGF stability, Residual peptide: 117.40 and 115.58 and 87.56
Porcine pepsin; simulated gi fluid, 8 h, 37 °C, pH 1.2, read-out: Proteolytic stability: SGF (8 h) % remaining
  remaining at 8 h: 107 ± 17%
[1]
  remaining at 8 h: 82 ± 10%
Porcine pancreatin; average of R1-R3
  SIF stability, Residual peptide Average: 82.44
Porcine pancreatin; single replicates R1-R3
  SIF stability, Residual peptide: 91.81 and 71.29 and 84.22
[2]; 50 μM, 12–18 h, acceptor concentration relative to equilibrium
  PAMPA permeability: % permeability: 47 ± 12%
[2]; PAMPA, pH 7.4
  Papp at 50 μM: 6.17 ×10⁻⁶ cm/s
[2]; top well sample vs theoretical equilibrium sample (TIC), average of R1-R3
  Permeability% Average: 46.9%
[2]; top well sample vs theoretical equilibrium sample (TIC), single replicates R1-R3
  Permeability%: 48.47% and 34.58% and 57.51%
